Measurements: paper PMC8200971, “Design, Synthesis, Biological Evaluation and Silico Prediction of Novel Sinomenine Derivatives” (Molecules, 2021)
Read-outs that look alike come from different tables or passages of the source.

Key:
[1] = test system: A549 (human lung adenocarcinoma cell lines); test: CCK8 cytotoxicity assay; assay type: cell-based; conditions: for IC50: read-out: IC50 A549; for inhibition at 2.5 µM / inhibition at 25 µM: read-out: growth inhibition ratio (mean ± SD)
Procedure: (§1) Cytotoxicity screens were performed to assess the in vitro anticancer activity of the synthesized sinomenine derivatives 6a–6l on the various cancer cell lines MCF-7, Hela, SW480, and A549, as well as on Hek293 as a normal cell line, at doses of 2.5 and 25 μM. The obtained inhibition ratios data were used to construct a heat map (Figure 3, Tables S1 and S2) in order to select compounds that exert cancer cell line-specific cytotoxicity. Then, the IC50 values of the promising compound were determined. Cisplatin was used as a reference standard. The antiproliferative activity was based on the evaluation of the percent viability using the CCK8 assay, which is a rapid and sensitive method for determining the number of viable cells in culture. In the presence of electronic coupling reagents, WST-8 can be reduced by a dehydrogenase in the mitochondria to produce a highly water-soluble orange-yellow formazan product. Its color is proportional to the proliferation of the number of viable cells and is related to cytotoxicity. Using a microplate reader to measure the OD value can indirectly reflect the number of living cells at 450 nm wavelength.
(§2) To understand structure–function relationships, these selected compounds were subjected to subsequent analyses. All six compounds (6a and 6c–6g) were further examined to determine their IC50 concentrations on the previously mentioned cell lines, and their efficacy was compared to the reference drug cisplatin. For this, six compounds and cisplatin were evaluated on Hela, MCF-7, SW480, and A549, and on noncancerous Hek293 cell lines at various concentrations for 60 h. IC50 values were calculated (Table 2).
(§3) The MCF-7 (human breast cancer cell lines), Hela (human cervical cancer cell lines), SW480 (human colon adenocarcinoma cell lines), A549 (human lung adenocarcinoma cell lines) and nontoxic normal cells Hek293 (human embryonic kidney cell lines) cells were used to measure the cytotoxicity of the 6a–6l. They were obtained from the Beijing Normal University (Beijing, China). The test cell lines were cultured in DMEM, IMDM, F12 and DMEM nutrient medium containing 10% heat-inactivated fetal bovine serum, […] and 100 units/mL penicillin in a humified, 5% (v/v) CO2 atmosphere at 37 °C.
(§4) Cell viability was estimated using the CCK8 assay. Tumor cells ([…]) viz. MCF-7, Hela, SW480, A549 and nontoxic normal cells Hek293 were seeded in medium containing Corning® 96-well tissue culture plates at confluences of […], respectively, in Incucyte ZOOM. Fresh medium (100 μL) containing different concentrations of the test sample was added after 12 h of seeding. The microtiter plates were incubated at 37 °C in a humidified incubator with 5% CO2 for 60 h. Triplicates from each concentration were used. Negative control cells were incubated without sample and cisplatin as a positive control. At the end of treatment, the numbers of viable cells were determined by the CCK8 test. In brief, the media was removed from the 96 well plates and replaced with 100 μL of fresh culture medium with 10% CCK8 solution added to each well including the untreated controls. The 96 well plates were then incubated at 37 °C and 5% CO2 for 1–4 h. Then, the absorbance was measured at 450 nm using a BMG LABTECH®-POLAR star Omega microplate reader (Ortenberg, Germany) to determine the number of viable cells, and the percentage of viability was calculated as ((ODt- ODb/ODc- ODb)) × 100%, where ODt is the mean optical density of wells treated with the tested sample, ODc is the mean optical density of wells treated with DMSO and ODb is the mean optical density of PBS wells without cells. The relation between surviving cells and drug concentrations were plotted to get the survival curve of each tumor cell line after treatment with the specified compound. […]

[2] = test system: Hela (human cervical cancer cell lines); test: CCK8 cytotoxicity assay; assay type: cell-based; conditions: for IC50: read-out: IC50 Hela; for inhibition at 2.5 µM / inhibition at 25 µM: read-out: growth inhibition ratio (mean ± SD)
Procedure: as §1, §2, §3, §4

[3] = test system: MCF-7 (human breast cancer cell lines); test: CCK8 cytotoxicity assay; assay type: cell-based; conditions: for IC50: read-out: IC50 MCF-7; for inhibition at 2.5 µM / inhibition at 25 µM: read-out: growth inhibition ratio (mean ± SD)
Procedure: as §1, §2, §3, §4

[4] = test system: SW480 (human colon adenocarcinoma cell lines); test: CCK8 cytotoxicity assay; assay type: cell-based; conditions: for IC50: read-out: IC50 SW480; for inhibition at 2.5 µM / inhibition at 25 µM: read-out: growth inhibition ratio (mean ± SD)
Procedure: as §1, §2, §3, §4

[5] = test system: Hek293 (human embryonic kidney cell lines); test: CCK8 cytotoxicity assay, normal cells; assay type: cell-based; conditions: for IC50: read-out: IC50 Hek293; for inhibition at 2.5 µM / inhibition at 25 µM: read-out: growth inhibition ratio (mean ± SD)
Procedure: as §1, §2, §3, §4

[6] = CCK8, 60 h, mean ± SD of three independent experiments

## COC1=C[C@@H]2[C@@H]3Cc4c(CN5CCCCC5)cc(OC)c(OC(=O)Cc5ccc(Cl)cc5)c4[C@]2(CCN3C)CC1=O [5a, (4bR,8aS,9S)-3,7-dimethoxy-11-methyl-6-oxo-1-(piperidin-1-ylmethyl)-6,8a,9,10-tetrahydro-5H-9,4b-(epiminoethano)phenanthren-4-yl 2-(4-chlorophenyl)acetate]
other
  melting point: 105 to 107 °C

## COC1=C[C@@H]2[C@@H]3Cc4c(CN5CCCCC5)cc(OC)c(OC(=O)Cc5ccccc5)c4[C@]2(CCN3C)CC1=O [5b, (4bR,8aS,9S)-3,7-dimethoxy-11-methyl-6-oxo-1-(piperidin-1-ylmethyl)-6,8a,9,10-tetrahydro-5H-9,4b-(epiminoethano)phenanthren-4-yl 2-phenylacetate]
other
  melting point: 192 to 194 °C

## COC1=C[C@@H]2[C@@H]3Cc4c(CN5CCCCC5)cc(OC)c(OC(=O)Cc5ccc(OC)c(OC)c5)c4[C@]2(CCN3C)CC1=O [5c, (4bR,8aS,9S)-3,7-dimethoxy-11-methyl-6-oxo-1-(piperidin-1-ylmethyl)-6,8a,9,10-tetrahydro-5H-9,4b-(epiminoethano)phenanthren-4-yl 2-(3,4-dimethoxyphenyl)acetate]
other
  melting point: 151 to 154 °C

## COC1=C[C@@H]2[C@@H]3Cc4c(CN5CCCCC5)cc(OC)c(OC(=O)Cc5ccccc5C)c4[C@]2(CCN3C)CC1=O [5d, (4bR,8aS,9S)-3,7-dimethoxy-11-methyl-6-oxo-1-(piperidin-1-ylmethyl)-6,8a,9,10-tetrahydro-5H-9,4b-(epiminoethano)phenanthren-4-yl 2-(o-tolyl)acetate]
other
  melting point: 177 to 178 °C

## COC1=C[C@@H]2[C@@H]3Cc4c(CN5CCCCC5)cc(OC)c(OC(=O)CCc5ccccc5)c4[C@]2(CCN3C)CC1=O [5e, (4bR,8aS,9S)-3,7-dimethoxy-11-methyl-6-oxo-1-(piperidin-1-ylmethyl)-6,8a,9,10-tetrahydro-5H-9,4b-(epiminoethano)phenanthren-4-yl 3-phenylpropanoate]
other
  melting point: 181 to 185 °C

## COC1=C[C@@H]2[C@@H]3Cc4c(CN5CCCCC5)cc(OC)c(OC(=O)Cc5ccccc5Cl)c4[C@]2(CCN3C)CC1=O [5f, (4bR,8aS,9S)-3,7-dimethoxy-11-methyl-6-oxo-1-(piperidin-1-ylmethyl)-6,8a,9,10-tetrahydro-5H-9,4b-(epiminoethano)phenanthren-4-yl 2-(2-chlorophenyl)acetate]
other
  melting point: 188 to 190 °C

## COC1=C[C@@H]2[C@@H]3Cc4c(CN5CCCCC5)cc(OC)c(OC(=O)Cc5ccc(OC)cc5)c4[C@]2(CCN3C)CC1=O [5h, (4bR,8aS,9S)-3,7-dimethoxy-11-methyl-6-oxo-1-(piperidin-1-ylmethyl)-6,8a,9,10-tetrahydro-5H-9,4b-(epiminoethano)phenanthren-4-yl 2-(4-methoxyphenyl)acetate]
other
  melting point: 121 to 122 °C

## COC1=C[C@@H]2[C@@H]3Cc4c(CN5CCCCC5)cc(OC)c(OC(=O)Cc5ccc(F)cc5)c4[C@]2(CCN3C)CC1=O [5k, (4bR,8aS,9S)-3,7-dimethoxy-11-methyl-6-oxo-1-(piperidin-1-ylmethyl)-6,8a,9,10-tetrahydro-5H-9,4b-(epiminoethano)phenanthren-4-yl 2-(4-fluorophenyl)acetate]
other
  melting point: 128 to 130 °C

## COC1=C[C@@H]2[C@@H]3Cc4c(CN5CCCC5)cc(OC)c(OC(=O)Cc5ccc(Cl)cc5)c4[C@]2(CCN3C)CC1=O [6a, (4bR,8aS,9S)-3,7-dimethoxy-11-methyl-6-oxo-1-(pyrrolidin-1-ylmethyl)-6,8a,9,10-tetrahydro-5H-9,4b-(epiminoethano)phenanthren-4-yl 2-(4-chlorophenyl)acetate]
[1]; Homo sapiens, A549, 60 h
  IC50: > 25 µM
  inhibition at 2.5 µM: 3.41 ± 0.82%
  inhibition at 25 µM: 37.4 ± 0.39%
[2]; Homo sapiens, HeLa, 60 h
  IC50: 11.5 ± 1.04 µM
  inhibition at 2.5 µM: 7.81 ± 5.42%
  inhibition at 25 µM: 88.49 ± 0.67%
[3]; Homo sapiens, MCF7, 60 h
  IC50: 14.3 ± 0.83 µM
  inhibition at 2.5 µM: 0%
  inhibition at 25 µM: 85.3 ± 1.62%
[4]; Homo sapiens, SW480, 60 h
  IC50: 14.94 ± 0.06 µM
  inhibition at 2.5 µM: 12.9 ± 6.52%
  inhibition at 25 µM: 82.3 ± 4.36%
[5]; Homo sapiens, HEK293, 60 h
  IC50: 13 ± 0.62 µM
  inhibition at 2.5 µM: 17.9 ± 1.86%
  inhibition at 25 µM: 61.1 ± 4.71%
other
  melting point: 162 to 165 °C

## COC1=C[C@@H]2[C@@H]3Cc4c(CN5CCCC5)cc(OC)c(OC(=O)Cc5ccc(OC)c(OC)c5)c4[C@]2(CCN3C)CC1=O [6b, (4bR,8aS,9S)-3,7-dimethoxy-11-methyl-6-oxo-1-(pyrrolidin-1-ylmethyl)-6,8a,9,10-tetrahydro-5H-9,4b-(epiminoethano)phenanthren-4-yl 2-(3,4-dimethoxyphenyl)acetate]
[1]; Homo sapiens, A549, 60 h
  inhibition at 2.5 µM: 0%
  inhibition at 25 µM: 30.9 ± 0.32%
[2]; Homo sapiens, HeLa, 60 h
  inhibition at 2.5 µM: 2.03 ± 2.29%
  inhibition at 25 µM: 11.5 ± 4.88%
[3]; Homo sapiens, MCF7, 60 h
  inhibition at 2.5 µM: 3.63 ± 3.16%
  inhibition at 25 µM: 2.7 ± 4.67%
[4]; Homo sapiens, SW480, 60 h
  inhibition at 2.5 µM: 22.9 ± 6.49%
  inhibition at 25 µM: 29.5 ± 11.2%
[5]; Homo sapiens, HEK293, 60 h
  inhibition at 2.5 µM: 0.66 ± 1.14%
  inhibition at 25 µM: 45.9 ± 1.35%
other
  melting point: 80 to 83 °C

## COC1=C[C@@H]2[C@@H]3Cc4c(CN5CCCC5)cc(OC)c(OC(=O)Cc5ccccc5Cl)c4[C@]2(CCN3C)CC1=O [6c, (4bR,8aS,9S)-3,7-dimethoxy-11-methyl-6-oxo-1-(pyrrolidin-1-ylmethyl)-6,8a,9,10-tetrahydro-5H-9,4b-(epiminoethano)phenanthren-4-yl 2-(2-chlorophenyl)acetate]
[1]; Homo sapiens, A549, 60 h
  IC50: 18.7 ± 0.7 µM
  inhibition at 2.5 µM: 16.3 ± 0.63%
  inhibition at 25 µM: 49.4 ± 0.59%
[2]; Homo sapiens, HeLa, 60 h
  IC50: > 25 µM
  inhibition at 2.5 µM: 3.05 ± 3.91%
  inhibition at 25 µM: 53.5 ± 2.45%
[3]; Homo sapiens, MCF7, 60 h
  IC50: > 25 µM
  inhibition at 2.5 µM: 0%
  inhibition at 25 µM: 42 ± 3.02%
[4]; Homo sapiens, SW480, 60 h
  IC50: > 25 µM
  inhibition at 2.5 µM: 28.3 ± 6.91%
  inhibition at 25 µM: 58.4 ± 7.58%
[5]; Homo sapiens, HEK293, 60 h
  IC50: 6.52 ± 0.19 µM
  inhibition at 2.5 µM: 13.8 ± 2.27%
  inhibition at 25 µM: 54.6 ± 2.29%
other
  melting point: 79 to 83 °C

## COC1=C[C@@H]2[C@@H]3Cc4c(CN5CCCC5)cc(OC)c(OC(=O)Cc5ccc(Cl)cc5Cl)c4[C@]2(CCN3C)CC1=O [6d, (4bR,8aS,9S)-3,7-dimethoxy-11-methyl-6-oxo-1-(pyrrolidin-1-ylmethyl)-6,8a,9,10-tetrahydro-5H-9,4b-(epiminoethano)phenanthren-4-yl 2-(2,4-dichlorophenyl)acetate]
[1]; Homo sapiens, A549, 60 h
  IC50: 11.6 ± 1.61 µM
  inhibition at 2.5 µM: 29.59 ± 0.16%
  inhibition at 25 µM: 93.02 ± 0.2%
[2]; Homo sapiens, HeLa, 60 h
  IC50: 8.2 ± 0.52 µM
  inhibition at 2.5 µM: 10.3 ± 4.44%
  inhibition at 25 µM: 93.1 ± 0.17%
[3]; Homo sapiens, MCF7, 60 h
  IC50: 5.73 ± 0.36 µM
  inhibition at 2.5 µM: 0%
  inhibition at 25 µM: 88.6 ± 2.73%
[4]; Homo sapiens, SW480, 60 h
  IC50: 6.08 ± 0.28 µM
  inhibition at 2.5 µM: 29.1 ± 6.92%
  inhibition at 25 µM: 94.2 ± 3.21%
[5]; Homo sapiens, HEK293, 60 h
  IC50: 3.46 ± 0.02 µM
  inhibition at 2.5 µM: 42.6 ± 0.84%
  inhibition at 25 µM: 84.6 ± 4.34%
other
  melting point: 82 to 86 °C

## N.N.[Cl][Pt][Cl] [Cisplatin, reference compound]
[1]; [6]
  IC50: 14.3 ± 0.7 µM
[2]; [6]
  IC50: 4.57 ± 0.43 µM
[3]; [6]
  IC50: 3.45 ± 0.82 µM
[4]; [6]
  IC50: 1.98 ± 0.15 µM
[5]; normal cell line, CCK8, 60 h, mean ± SD of three independent experiments
  IC50: 3.19 ± 0.6 µM
